Test results from ChEMBL document CHEMBL4229474, “Indenone derivatives as inhibitor of human DNA dealkylation repair enzyme AlkBH3” (Bioorg Med Chem, 2018).
Activity calls are given as the source filed them. The rule behind the calls is not given here.

Assays:
[1] = molecular target: T1, Alpha-ketoglutarate-dependent dioxygenase alkB homolog 3 (Homo sapiens, UniProt Q96Q83); assay: Inhibition of recombinant human AlkBH3 assessed as reduction in formaldehyde release using 40-mer single N3-meC as substrate incubated for 60 mins followed by substrate addition measured after 15 mins by fluorescence assay
T1 sequence (Q96Q83 whole entry): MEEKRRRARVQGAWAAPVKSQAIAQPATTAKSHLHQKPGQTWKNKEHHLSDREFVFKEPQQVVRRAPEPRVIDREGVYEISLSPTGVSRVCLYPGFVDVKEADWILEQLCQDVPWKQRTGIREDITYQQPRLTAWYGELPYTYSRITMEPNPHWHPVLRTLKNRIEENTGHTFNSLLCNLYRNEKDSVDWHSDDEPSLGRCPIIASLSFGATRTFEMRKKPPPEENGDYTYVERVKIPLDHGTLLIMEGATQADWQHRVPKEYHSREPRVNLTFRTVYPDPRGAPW

[2] = molecular target: T2, Alpha-ketoglutarate-dependent dioxygenase alkB homolog 3 (Homo sapiens) (UniProt Q96Q83); assay: Inhibition of recombinant human AlkBH3 assessed as reduction in formaldehyde release at 50 uM using 40-mer single N3-meC as substrate incubated for 60 mins followed by substrate addition measured after 15 mins by fluorescence assay
T2 sequence (whole entry): T1 sequence (Q96Q83 whole entry)

A549 [3] = assay: Cytotoxicity against human A549 cells assessed as decrease in cell viability at 1 uM after 12 to 60 mins by MTT assay; assay type: functional, cell-based
[4] = molecular target: T2, Alpha-ketoglutarate-dependent dioxygenase alkB homolog 3 (Homo sapiens); assay: Inhibition of AlkBH3 in human A549 cells assessed as increase in MMS-induced cytotoxicity at 1 uM after 48 hrs by MTT assay; assay type: cell-based
A549 [5] = assay: Cytotoxicity against human A549 cells assessed as decrease in cell viability after 48 to 72 hrs by MTT assay; assay type: functional, cell-based
A549 [6] = assay: Cytotoxicity against human A549 cells assessed as decrease in cell viability at 500 uM after 48 to 72 hrs by MTT assay; assay type: functional, cell-based
[7] = molecular target: T2, Alpha-ketoglutarate-dependent dioxygenase alkB homolog 3 (Homo sapiens); assay: Mixed type inhibition of recombinant human AlkBH3 assessed as reduction in formaldehyde release at 50 to 500 uM using varying levels of 2OG as substrate incubated for 60 mins followed by substrate addition measured after 15 mins by Lineweaver-Burk plot analysis
[8] = molecular target: T2, Alpha-ketoglutarate-dependent dioxygenase alkB homolog 3 (Homo sapiens); assay: Binding affinity to recombinant human AlkBH3 at 12 uM after 1 hr by near-UV circular dichroism spectroscopy
[9] = molecular target: T1, Alpha-ketoglutarate-dependent dioxygenase alkB homolog 3; assay: Binding affinity to recombinant human AlkBH3 incubated for 2 mins by isothermal titration calorimetric method
[10] = molecular target: T2, Alpha-ketoglutarate-dependent dioxygenase alkB homolog 3 (Homo sapiens); assay: Binding affinity to recombinant human AlkBH3 at 12 uM after 1 hr by far-UV circular dichroism spectroscopy
[11] = molecular target: T2, Alpha-ketoglutarate-dependent dioxygenase alkB homolog 3 (Homo sapiens); assay: Competitive inhibition of recombinant human AlkBH3 assessed as reduction in formaldehyde release at 50 to 500 uM using 40-mer internal N3me-oligo-dC as substrate incubated for 60 mins followed by substrate addition measured after 15 mins by Lineweaver-Burk plot analysis

Structure (SMILES)	IC50 [1]	other results
COc1cccc(C2=C(c3cccc(OC)c3)c3cc(-c4ccc(C)cc4)ccc3C2=O)c1	13.1 µM	inhibition [2]: Active
Cc1ccc(C2=C(Br)C(=O)c3ccc(C)cc32)cc1	> 50 µM	–
Cc1ccc2c(c1)C(c1ccc(Cl)c(Cl)c1)=C(c1ccc(Cl)c(Cl)c1)C2=O	32.3 µM	inhibition [2]: Active
COc1ccc(C2=C(c3ccc(OC)cc3)c3cc(C)ccc3C2=O)cc1	> 50 µM	–
COc1ccc(C2=C(Cl)C(=O)c3ccc(-c4ccccc4)cc32)cc1	> 50 µM	Activity (A549 [3]): inactive; inhibition [4]: inactive; IC50 (A549 [5]): 370 µM
Cc1ccc2c(c1)C(c1cccc3ccccc13)=C(Br)C2=O	> 50 µM	–
Cc1ccc(C2=C(c3ccc(C)cc3)c3cc(C)ccc3C2=O)cc1	> 50 µM	–
COc1ccc(C2=C(c3ccc(OC)c(OC)c3)c3cc(C)ccc3C2=O)cc1OC	> 50 µM	–
COc1ccc(C2=C(c3cc(OC)cc(OC)c3)C(=O)c3ccc(-c4ccccc4)cc32)cc1	> 50 µM	–
COc1ccc(C2=C(c3cc(OC)cc(OC)c3)c3cc(C)ccc3C2=O)cc1	> 50 µM	–
COc1ccc(C2=C(c3cc(OC)cc(OC)c3)C(=O)c3ccc(C)cc32)cc1	> 50 µM	–
COc1cccc(C2=C(c3cccc(OC)c3)c3cc(C)ccc3C2=O)c1	> 50 µM	–
COc1ccc(C2=C(Br)C(=O)c3ccc(C)cc32)cc1	43.2 µM	–
COc1ccc(C2=C(c3ccc(OC)c(OC)c3)c3cc(-c4ccc(C)cc4)ccc3C2=O)cc1OC	> 50 µM	–
COc1ccc(C2=C(c3cc(OC)cc(OC)c3)C(=O)c3ccc(-c4ccc(C)cc4)cc32)cc1	> 50 µM	–
Cc1ccc2c(c1)C(c1ccccc1)=C(Br)C2=O	> 50 µM	–
Cc1ccc2c(c1)C(c1ccccc1)=C(c1ccccc1)C2=O	> 50 µM	–
COc1ccc(C2=C(c3ccc(OC)c(OC)c3)c3cc(-c4ccccc4)ccc3C2=O)cc1OC	> 50 µM	–
COc1ccc(C2=C(Cl)C(=O)c3ccc(C)cc32)cc1	> 50 µM	Activity (A549 [3]): inactive; inhibition [4]: inactive; Activity (A549 [6]): inactive
O=C1C(c2ccccc2)=C(c2ccccc2)c2cc(-c3ccccc3)ccc21	> 50 µM	–
COc1ccc(C2=C(Cl)C(=O)c3ccc(-c4ccc(C)cc4)cc32)cc1	9.8 µM	inhibition [7]: Active; Activity [8]: Active; Activity (A549 [3]): Active; inhibition [4]: Active; Kd [9]: 7.81 µM; Activity [10]: Active; inhibition [2]: Active; Activity (A549 [5]): Dose-dependent effect; IC50 (A549 [5]): 18 µM; inhibition [11]: Active
COc1ccc(C2=C(Br)C(=O)c3ccc(C)cc32)cc1OC	> 50 µM	–
COc1cccc(C2=C(c3cccc(OC)c3)c3cc(-c4ccccc4)ccc3C2=O)c1	> 50 µM	–
COc1ccc(C2=C(c3ccc(OC)cc3)c3cc(-c4ccccc4)ccc3C2=O)cc1	> 50 µM	–
COc1cc(OC)cc(C2=C(Br)C(=O)c3ccc(C)cc32)c1	> 50 µM	–
